Assay results taken from US9133200B2, “Imidazo[1,2-b]pyridazine and imidazo[4,5-b]pyridine derivatives as JAK inhibitors” (Almirall, S.A., priority 2010, dated 2015).

Experiments:
Format in all cases: biochemical
[1] = molecular target: T1, human JAK3 (aa 795-1124) (Homo sapiens, UniProt P52333); assay: In vitro JAK kinase assay (TR-FRET), JAK3; conditions: catalytic domain GST-fusion; ATP 0.6 μM; poly (GT)-Biotin 140 nM; 30 minutes at room temperature
T1 construct: JAK3 (aa 795-1124); GST (N); purchased Carna Biosciences; host or cells: baculovirus expression system
T1 sequence (P52333 795-1124): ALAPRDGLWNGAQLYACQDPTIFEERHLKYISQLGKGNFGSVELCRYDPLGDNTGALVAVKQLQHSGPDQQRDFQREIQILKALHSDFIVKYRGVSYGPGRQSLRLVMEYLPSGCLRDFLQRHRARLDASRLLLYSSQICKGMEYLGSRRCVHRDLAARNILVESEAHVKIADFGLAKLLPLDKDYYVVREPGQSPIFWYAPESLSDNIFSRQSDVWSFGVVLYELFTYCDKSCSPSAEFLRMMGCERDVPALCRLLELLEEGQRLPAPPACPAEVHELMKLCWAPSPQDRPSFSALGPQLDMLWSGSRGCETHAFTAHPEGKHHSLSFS
Method: (§1) Compounds were screened for their ability to inhibit JAK1, JAK2 and JAK3 using the assays as indicated below.
(§2) The catalytic domains of human JAK1 (aa 850-1154), JAK2 (aa 826-1132), JAK3 (aa 795-1124) and Tyk2 (aa 871-1187) were expressed as N-terminal GST-fusion proteins using a baculovirus expression system and were purchased from Carna Biosciences. The enzymatic activity was assayed using as substrate a biotinylated peptide, poly (GT)-Biotin (CisBio). The peptide concentration in the reactions was 60 nM for JAK1, […], 140 nM for JAK3 and 50 nM for Tyk2. The degree of phosphorylation was detected by TR-FRET (time-resolved fluorescence energy transfer).
(§3) IC50s of compounds were measured for each kinase in a reaction mixture containing the enzyme, ATP and the peptide in 8 mM MOPS (pH 7.0), 10 mM MgCl2, 0.05% […], 0.45 mg/ml BSA. The ATP concentration in the reactions was 3 μM for JAK1, 0.2 μM for JAK2, 0.6 μM for JAK3 and 1.8 μM for Tyk2. The enzymatic reactions took place for 30 minutes at room temperature. Then, the reactions were stopped with 20 μL of quench detection buffer (50 mM HEPES, 0.5 M KF, EDTA 0.25 M, 0.1% (w/v) BSA, pH 7.5) containing 0.115 μg/mL of anti-phosphoTyr (PT66)-Cryptate (CisBio) and a variable concentration of SA-XL665 (CisBio) to keep the SA-B ratio constant. Incubate for 3 h and read on Victor 2V spectrofluorometer (PerkinElmer) set to read fluorescence resonance energy transfer.

[2] = molecular target: T2, human JAK1 (aa 850-1154) (Homo sapiens, UniProt P23458); assay: In vitro JAK kinase assay (TR-FRET), JAK1; conditions: catalytic domain GST-fusion; ATP 3 μM; poly (GT)-Biotin 60 nM; 30 minutes at room temperature
T2 construct: human JAK1 (aa 850-1154); GST (N); purchased Carna Biosciences; host or cells: baculovirus expression system
T2 sequence (P23458 850-1154): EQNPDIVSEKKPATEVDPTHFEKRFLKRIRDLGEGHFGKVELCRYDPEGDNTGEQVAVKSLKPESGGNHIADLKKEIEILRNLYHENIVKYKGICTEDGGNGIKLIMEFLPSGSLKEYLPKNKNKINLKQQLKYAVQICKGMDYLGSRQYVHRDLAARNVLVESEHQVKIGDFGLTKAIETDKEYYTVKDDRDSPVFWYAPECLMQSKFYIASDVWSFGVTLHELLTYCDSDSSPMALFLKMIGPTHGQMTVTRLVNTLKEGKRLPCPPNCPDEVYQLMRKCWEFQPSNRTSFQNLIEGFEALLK
Method: as §1, §2, §3

[3] = molecular target: T3, human JAK2 (aa 826-1132) (Homo sapiens, UniProt O60674); assay: In vitro JAK kinase assay (TR-FRET), JAK2; conditions: catalytic domain GST-fusion; ATP 0.2 μM; poly (GT)-Biotin; 30 minutes at room temperature
T3 construct: JAK2 (aa 826-1132); GST (N); purchased Carna Biosciences; host or cells: baculovirus expression system
T3 sequence (O60674 826-1132): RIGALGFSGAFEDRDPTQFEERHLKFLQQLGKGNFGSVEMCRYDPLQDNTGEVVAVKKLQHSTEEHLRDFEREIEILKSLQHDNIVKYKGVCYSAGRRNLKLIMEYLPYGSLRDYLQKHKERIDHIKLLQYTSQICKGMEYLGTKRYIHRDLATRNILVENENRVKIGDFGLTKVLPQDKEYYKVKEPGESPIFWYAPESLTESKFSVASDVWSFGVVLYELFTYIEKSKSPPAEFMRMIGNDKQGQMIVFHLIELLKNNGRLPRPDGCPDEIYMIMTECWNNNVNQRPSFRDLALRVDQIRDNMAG
Method: as §1, §2, §3

SMILES | IC50 [1] [nM] | IC50 [2] [nM] | IC50 [3] [nM]
C[C@H](Nc1ccc2ncc(-c3ccn[nH]c3=O)n2n1)c1ccccc1 [Example 6, 4-(6-{[(1S)-1-Phenylethyl]amino}imidazo[1,2-b]pyridazin-3-yl)pyridazin-3(2H)-one] | < 100 | 100 to 1000 | < 100
C[C@H](Nc1ccc2ncc(-c3cc(Cl)c[nH]c3=O)n2n1)c1ccc(F)cn1 [Example 8, 5-Chloro-3-(6-{[(1S)-1-(5-fluoropyridin-2-yl)ethyl]amino}imidazo[1,2-b]pyridazin-3-yl)pyridin-2(1H)-one] | < 100 | < 100 | < 100
Cc1cc2ncc(-c3ccc[nH]c3=O)n2nc1N[C@@H](C)c1ccc(F)cn1 [Example 9, 3-(6-{[(1S)-1-(5-Fluoropyridin-2-yl)ethyl]amino}-7-methylimidazo[1,2-b]pyridazin-3-yl)pyridin-2(1H)-one] | < 100 | < 100 | < 100
C[C@H](Nc1ccc2ncn(-c3cc(Cl)c[nH]c3=O)c2n1)c1ccc(F)cn1 [Example 13, 5-Chloro-3-(5-{[(1S)-1-(5-fluoropyridin-2-yl)ethyl]amino}-3H-imidazo[4,5-b]pyridin-3-yl)pyridin-2(1H)-one] | < 100 | < 100 | < 100

Second part, the compound after the results:

IC50 [1] [nM] | IC50 [2] [nM] | IC50 [3] [nM] | SMILES
< 100 | < 100 | < 100 | N#CCC(=O)N1CCC[C@@H](Nc2ccc3ncc(-c4ccc[nH]c4=O)n3n2)C1 [Example 1, 3-Oxo-3-((3R)-3-{[3-(2-oxo-1,2-dihydropyridin-3-yl)imidazo[1,2-b]pyridazin-6-yl]amino}piperidin-1-yl)propanenitrile]
< 100 | 100 to 1000 | < 100 | C[C@@H](Nc1ccc2ncc(-c3ccc[nH]c3=O)n2n1)c1ccc(F)cn1 [Example 4, 3-(6-{[(1R)-1-(5-Fluoropyridin-2-yl)ethyl]amino}imidazo[1,2-b]pyridazin-3-yl) pyridin-2(1H)-one]
< 100 | < 100 | < 100 | C[C@H](Nc1ccc2ncc(-c3ccc[nH]c3=O)n2n1)c1ncc(F)cn1 [Example 5, 3-(6-{[(1S)-1-(5-Fluoropyrimidin-2-yl)ethyl]amino}imidazo[1,2-b]pyridazin-3-yl)pyridin-2(1H)-one]
